Laboratory results reported in US20260085069A1, “PRODRUGS” (Cambridge Enterprise Limited, priority 2022, published 2026).
Converted amounts (≈) assume the structure as drawn.

Tests used:
[1] = Comparative solubility data for Reference Example 1 (thermodynamic and kinetic); type: physicochemical
[2] = Solubility in simulated fluids (kinetic solubility, 24 hours); type: physicochemical; details: thermodynamic from solid, 24 hour timepoint, room temperature
Experimental: A known quantity of the Examples and control compounds were weighed into a suitable vessel (whatman miniuniprep vials) and a known volume of the required media was added (e.g. Simulated Gastric Fluid pH 1.2 [SGF], Simulated Fasted State Intestinal Fluid pH 6.5 [FaSSIF] or Phosphate Buffered Saline pH 7.4 [PBS]). The samples were subjected to vortex mixing for 2 minutes followed by agitation on a shaker for 24 hours at room temperature at 800 rpm.

in vitro = in vitro ADME; details: rat intestinal microsomes, NADPH, 37° C.
Experimental: 5 μL of a 10 mM stock solution of the Examples were dissolved in 495 μL acetonitrile to afford 500 μL working solution.
The appropriate amount of β-Nicotinamide adenine dinucleotide phosphate reduced form, tetrasodium salt; NADPH-4Na (NADPH) powder was weighed and diluted into a 10 mM MgCl2 solution (working solution concentration: 10 unit/mL; final concentration in reaction system: 1 unit/mL).
The appropriate concentrations of rat intestinal microsome (Xenotech, cat. No R1000.1) working solutions were prepared in 100 mM potassium phosphate buffer.
Cold (4° C.) acetonitrile (ACN) containing 200 ng/mL tolbutamide and 200 ng/mL labetalol as internal standards (IS).
Incubation plates were pre-incubated for 10 minutes at 37° C. with constant shaking. 54 μL was transferred from Incubation plates into a blank plate and then 6 μL NADPH cofactor and 180 μL quenching solution was added to the Incubation plates. 5 μL Example working solution (100 μM) was also added to the Incubation plates and mixed thoroughly.
The T60 Incubation plate was mixed thoroughly and for the 0-min timepoint, 54 μL was transferred into a Quenching plate (containing 180 μL quenching solution and 6 μL NADPH cofactor). 44 μL NADPH cofactor was then added to the T60 Incubation plate and incubated at 37° C. for 60 min while shaking. At 5, 15, 30, 45, and 60 min, 60 μL samples were transferred from T60 Incubation plate into a Quenching plate (containing 180 μl quenching solution). For the NCF60 Incubation plate, 50 μL of buffer was added and mixed thoroughly before incubation at 37° C. for 60 min while shaking, at the 60-min time point 60 μL was transferred to the Quenching plate (containing 180 μl quenching solution). All sampling plates were shaken for 10 min, then centrifuged at 4000 rpm for 20 minutes at 4° C. 80 μL supernatant was transferred into 240 μL HPLC water, and mixed for 10 min.

[3] = Stability in aqueous media (FaSSIF, SGF, PBS); type: physicochemical; details: for FaSSIF (pH 6.5) % remaining 1 h / FaSSIF (pH 6.5) % remaining 6 h / FaSSIF (pH 6.5) % remaining 24 h: FaSSIF pH 6.5, 37° C.; for PBS (pH 7.4) % remaining 1 h / PBS (pH 7.4) % remaining 6 h / PBS (pH 7.4) % remaining 24 h: PBS pH 7.4, 37° C.; for SGF (pH 1.2) % remaining 1 h / SGF (pH 1.2) % remaining 6 h / SGF (pH 1.2) % remaining 24 h: SGF pH 1.2, 37° C.
Experimental: 10 μL of a 10 mM stock solution of the Examples were dissolved in 490 μL DMSO to afford […] working solution SGF (pH 1.2):
Dissolve 0.04 g NaCl and 0.064 g pepsin in 0.14 mL HCl and add sufficient water to 20 mL volume. The pH of the test solution was 1.20±0.05.
0.056% (w/v) lecithin, 0.161% (w/v) sodium taurocholate, 0.39% (w/v) monobasic potassium phosphate, 0.77% (w/v) potassium chloride, deionized H2O. The pH of the test solution was 6.5±0.05.
30 mL of 10×PBS (pH7.4) was added into a 50 mL flask and diluted with water. The solution was mixed well and adjusted to pH 7.4 with 1 N HCl.
2 μL of the 200 μL working solution of the Examples was added into 96-deep-well plates for TO, T60, T120, T360 and T1440 timepoints. Duplicates were prepared.
Stability studies were commenced by the addition of 198 μL of the required media (e.g. Simulated Gastric Fluid pH 1.2 [SGF], Simulated Fasted State Intestinal Fluid pH 6.5 [FaSSIF]) and Phosphate Buffered Saline pH 7.4 [PBS]) to each well except TO. The samples were incubated at 37° C. at 600 rpm for the appointed time. The samples at the corresponding timepoint were removed and immediately mixed with 400 μL of cold acetonitrile containing 200 ng/mL tolbutamide and labetalol (internal standard). The samples were centrifuged at 4000 rpm at 4° C. for 20 minutes. 60 μL of the supernatant was removed and mixed with 180 μL purified water and thoroughly mixed and analysed by LCMS (Shimadzu LC 30-AD, ACQUITY UPLC BEH Phenyl 1.7 um 2.1*50 mm Part No. 186002884, with mobile phase A: 0.1% formic acid in water, mobile phase B: 0.1% formic acid in acetonitrile). Formation of parent was also monitored as a metabolite.
Samples were analysed by Mass Spectrometry QTRAP 6500+.

[4] = type: in vitro ADME; details: rat plasma, 37° C.
Experimental: 5 μL of a 10 mM stock solution of the Examples were dissolved in 495 μL DMSO to afford 500 μL working solution Assay procedure:
98 μL plasma was added to each well of a 96-well reaction plate, using one plate per timepoint (Blank, TO, T10, T30, T60, and T120). 2 μL of working solution was added to each well of the reaction plates except Blank. Each plate was incubated at 37° C. for the indicated timepoint (0, 10, 30, 60, 120 minutes). At the end of incubation, 400 μL of stop solution (200 ng/mL tolbutamide and 200 ng/mL labetalol in 0.1% FA in ACN) was added to precipitate protein. The plates were then sealed and shaken for 20 minutes before centrifugation at 4000 rpm for 20 minutes. […] Formation of parent was also monitored as a metabolite.

[5] = simulated gastric fluid, SGF (pH 1.2)

Structure (SMILES) | solubility kinetic at 24 h [2, 5] [µg/mL] | solubility kinetic at 24 h ([2]; FaSSIF (pH 6.5)) [µg/mL] | CIint(mic) (in vitro) [µL/min/mg] | half-life at 1 µM (in vitro) [min] | FaSSIF (pH 6.5) % remaining 1 h [3] [%] | FaSSIF (pH 6.5) % remaining 6 h [3] [%] | FaSSIF (pH 6.5) % remaining 24 h [3] [%] | PBS (pH 7.4) % remaining 1 h [3] [%] | PBS (pH 7.4) % remaining 6 h [3] [%] | PBS (pH 7.4) % remaining 24 h [3] [%] | SGF (pH 1.2) % remaining 1 h [3] [%] | SGF (pH 1.2) % remaining 6 h [3] [%] | SGF (pH 1.2) % remaining 24 h [3] [%] | also measured
O=C(O)c1ccc2c(c1)nc(OCCOCCCCNCc1cc(F)c(OC(F)(F)F)c(F)c1)c1ccncc12 [Reference Example 1, 5-(2-(4-((3,5-difluoro-4-(trifluoromethoxy)benzyl)amino)butoxy)ethoxy)benzo[c][2,6]naphthyridine-8-carboxylic acid] |  |  |  |  |  |  |  |  |  |  |  |  |  | solubility ([1]; aqueous buffer, kinetic from dmso stock, kinetic, phosphate buffer, initial pH 7.4): 31 µg/mL (≈ 54.8 µM); solubility ([1]; aqueous buffer, thermodynamic from solid, thermodynamic, phosphate buffer, initial pH 1.0): 256 µg/mL (≈ 453 µM); solubility ([1]; aqueous buffer, thermodynamic from solid, thermodynamic, phosphate buffer, initial pH 7.4): < 0.9 µg/mL; solubility ([1]; aqueous buffer, thermodynamic from solid, thermodynamic, phosphate buffer, initial pH 10.0): < 0.9 µg/mL; solubility ([1]; thermodynamic from solid, thermodynamic, FaSSIF, initial pH 6.5): 1.6 µg/mL (≈ 2.83 µM)
CCC(=O)OCOC(=O)c1ccc2c(c1)nc(OCCOCCCCNCc1cc(F)c(OC(F)(F)F)c(F)c1)c1ccncc12 [Example 12, (propionyloxy)methyl 5-(2-(4-((3,5-difluoro-4-(trifluoromethoxy)benzyl)amino)butoxy)ethoxy)benzo[c][2,6]naphthyridine-8-carboxylate] | 7.4 (≈ 11.4 µM) | 97.5 (≈ 150 µM) | 90.8 | 25.4 | 94.9 | 96.5 | 99.8 | 76.4 | 6.3 | 1.1 | 101.3 | 49.5 | 10.1 | 
CCOC(=O)OCOC(=O)c1ccc2c(c1)nc(OCCOCCCCNCc1cc(F)c(OC(F)(F)F)c(F)c1)c1ccncc12 [Example 13, ((ethoxycarbonyl)oxy)methyl 5-(2-(4-((3,5-difluoro-4-(trifluoromethoxy)benzyl)amino)butoxy)ethoxy)benzo[c][2,6]naphthyridine-8-carboxylate] | 17.8 (≈ 26.7 µM) | 98 (≈ 147 µM) | 126.2 | 18.3 | 106.5 | 99.8 | 96.8 | 84.3 | 17.5 | 20.5 | 106.8 | 63.6 | 21.5 | % Example remaining 0 min ([4]; 0 min): 100.0%; Example concentration (nM) 0 min ([4]; 0 min): 1601.0 nM; % Example remaining 10 min ([4]; 10 min): 0.1%; Example concentration (nM) 10 min ([4]; 10 min): 1.6 nM
